Results: patent US10932483B2, “Sweetness enhancer” (PepsiCo, Inc., priority 2014, dated 2021)
“And” between values parts separate entries of the source, which are not always exact repeats. Equal values may be shown once. “Also recorded” adds a separate entry of the source.

Columns and labels:
[1] = system: human sense of taste; assay: Sweet taste intensity ranking by trained sensory discrimination panelists; type: in vivo
Excerpt: (§1) Panelists were asked to rank the samples in order of sweet taste intensity from low sweet to high sweet. Each panelist tasted each sample twice during the study such that each sample was judged a total of 30 times.
as §1
Panelists were asked to rank the samples in order of sweet taste intensity from low sweet to high sweet. Each panelist was presented a replicate set to render a total of 32 judgment data points.

[2] = system: human sense of taste; assay: Taste of sugar solutions with phloroglucinol and supplemental sweetness enhancers; type: in vivo; conditions: Example 22: 500 ppm phloroglucinol, 350 ppm rebaudioside C, 8% sugar
Description: (§2) General Tasting Procedure: Unless otherwise specified in a given example, tastings were performed by a single taster using a “sip, spit, rinse” protocol. Under this protocol, the taster: • a. sipped up to about 10 ml of a given solution and assessed the sweetness, mouthfeel, and other characteristics of the solution during its residence in the taster's mouth; • b. spit out the solution after making the assessment; and • c. rinsed with water to cleanse the palate before testing any further samples.
Three tasters conducted taste experiments on the blends identified in the table, below.
Experiments were conducted utilizing phloroglucinol and rebaudioside C in a sugar solutions.
Two testers tasted each of solutions 1 through 5, in the table above.
Taste experiments were conducted with sugar solutions comprising phloroglucinol and one of rebaudioside B, rebaudioside M, and trilobatin as set forth in the table, below.
Two testers tasted these solutions.
Five aqueous solutions comprising sugar, phloroglucinol, and/or rubusoside were prepared as set forth in the table below and tested for sweetness.

[3] = system: human sense of taste; assay: Taste of phloroglucinol in water, alone or with salt; type: in vivo
Description: as §2
To analyze this effect, an experiment was conducted to determine whether NaCl could be used as a supplemental sweetness enhancer.

[4] = system: human sense of taste; assay: Taste of beverages (cola, SIERRA MIST, diet cola) containing phloroglucinol; type: in vivo
Description: Sources: A bottle of cola concentrate (HFCS-55) and a bottle of concentrate having ⅓ less HFCS (the “Brix-reduced syrup”) were obtained. […] Both concentrates were then used to make cola beverages (volume 4.5 carbonated water) in a 1 plus 5 throw manner.
Experiments were conducted on a sugar reduced cola beverage. A control bottle of cola concentrate (HFCS-55) and a bottle of Brix reduced variant concentrate having 35% less HFCS than the control were used. […] Both concentrates were then used to make cola beverages with volume 4.5 carbonated water in a 1 plus 5 throw manner.
Taste experiments were conducted for a diet cola beverage. Unsweetened diet cola concentrate was used. Control syrup 1 was made by adding 3000 ppm aspartame to the concentrate. Control syrup 2 was made by adding 2400 ppm rebaudioside M to the diet cola concentrate. […] All concentrates were then used to make diet cola beverages with volume 4.5 carbonated water in a 1 plus 5 throw manner.
The finished control diet cola beverage 1 contained 500 ppm aspartame.
A total of 5 diet cola tasters evaluated the four beverages.

[5] = system: human sense of taste; assay: Lab taste test (sip, spit, rinse) of sweetener solutions containing phloroglucinol against reference sweetener solutions; type: in vivo
Description: as §2
Reference solutions: 5%, 7%, and 9% aqueous sucrose (sugar) solutions were prepared.
Reference solutions: 5%, 7%, and 9% aqueous sucrose solutions were prepared as in Example 1.
Reference solutions: 5%, 7%, 8% and 9% sucrose solutions in aqueous pH 3.0 citrate buffer solutions (citric acid 2.26 g plus trisodium citrate 0.32 g in 2 L water) were prepared.
Reference solutions: 2.5%, 3.5%, and 4% aqueous fructose (Sigma) solutions were prepared.
Reference solutions: 5%, 7%, 8% and 9% aqueous glucose (Sigma) solutions were prepared.
Reference solutions: 5%, 6%, 7%, 8% and 9% aqueous sucrose solutions were prepared. […] The variants were then tasted and assessed for their similarity to the reference solutions.
Reference solutions: 8%, 9%, 10%, and 11% aqueous sucrose solutions were prepared.
Reference solutions: 250 ppm and 320 ppm aqueous rebaudioside A solutions were prepared.

[6] = Physicochemical properties of phloroglucinol; conditions: concentrations described; higher temperatures; sunlight
[7] = system: human sense of taste; assay: Taste of QUAKER Instant Oatmeal containing phloroglucinol; type: in vivo
Description: Sugar was added to unsweetened QUAKER Instant Oatmeal (IQO) Original flavor. A high sugar control comprising 8 g sugar per bag of IQO (29 g) was prepared. A low sugar control comprising 5 g sugar per bag of IQO (29 g) was also prepared. […] The high control, low control, and variant formulations were placed in individual beakers and combined with about 200 mL of hot water. The resulting mixtures were stirred and then tasted. Taste tests were conducted while the mixtures were still warm and after the mixtures had cooled to room temperature.
The high and low controls described in Example 14 were again prepared. […] The high control, low control, and variant formulations were placed in individual beakers and combined with about 200 mL of hot water. The resulting mixtures were stirred and then tasted. Tasting was performed while the IQO was warm and after the IQO cooled to room temperature.

[8] = system: human sense of taste; assay: Taste of sugar solutions with phloroglucinol and salt against sugar controls; type: in vivo; conditions: for phloroglucinol concentration required to achieve the sweetness of an 11% sugar solution: 8% sugar
Description: as §2
Half remained as a low control. Salt (300 ppm) was added to the other half (the “variant”). An 11% sugar solution was prepared as a high control.

[9] = system: human sense of taste; assay: as above; type: in vivo; conditions: for Taste: body compared with 8% sugar control: 5% sugar in water
[10] = Example 25: 400 ppm phloroglucinol in 5% sucrose
[11] = Example 26: 400 ppm phloroglucinol and 200 ppm sodium chloride in 5% sucrose
[12] = Example 27: 800 ppm phloroglucinol in 8.475% sucrose
[13] = Example 13: 800 ppm phloroglucinol in SIERRA MIST
[14] = Example 8: 250 ppm phloroglucinol in 250 ppm aqueous rebaudioside A
[15] = Example 10, second taster: 250 ppm rebaudioside A with 800 ppm phloroglucinol
[16] = Example 17: 800 ppm phloroglucinol, 400 ppm salt, 8% sugar in water

SMILES: Oc1cc(O)cc(O)c1 [phloroglucinol]
- sweet taste increased to, as sucrose equivalent [1, 10]: approximately 6.4%
- sweetness enhancement [1, 10]: approximately 28%
- sweet taste increased to, as sucrose equivalent [1, 11]: approximately 6.6%
- sweetness enhancement [1, 11]: approximately 32%
- statistical comparison with 11.3% sucrose solution [1, 12]: statistically indistinguishable from the 11.3% solution
- sweet taste increased to, as sucrose equivalent [1, 12]: approximately 11.76%
- sweetness enhancement [1, 12]: about 39%
- combination effect with rebaudioside C [2]: synergistic
- Taste ([3]; 300 ppm in water): No taste
- sweet taste of phloroglucinol by itself ([3]; 300 ppm to 800 ppm in water): No sweet taste was observed; also recorded: does not have any taste
- Taste ([3]; 400 ppm in water): No taste
- Taste ([3]; 400 ppm phloroglucinol, 100 ppm salt in water): No taste
- Taste ([3]; 500 ppm in water): No taste
- Taste ([3]; 500 ppm phloroglucinol, 100 ppm salt in water): No taste
- Taste ([3]; 600 ppm in water): No taste
- Taste ([3]; 600 ppm phloroglucinol, 100 ppm salt in water): No taste
- Taste, estimated sugar equivalent ([3]; 600 ppm phloroglucinol, 400 ppm salt in water): ~1% sugar
- Taste ([3]; 800 ppm in water): No taste
- taste of phloroglucinol in the presence of salt ([3]; Example 15: with sodium chloride): slightly sweet
- sweetness of variant cola beverage compared with control cola (11.3 Brix) ([4]; Example 12: 1/3 less HFCS (8 Brix without phloroglucinol), 800 ppm phloroglucinol): equal
- mouthfeel and flavor of variant cola beverage ([4]; Example 12: 1/3 less HFCS, 800 ppm phloroglucinol): good mouthfeel; also recorded: more sour but with less caramel sweet flavor
- sweetness after storage ([4]; Example 12 cola, stored at 90° F. for 18 days): sweetness remained about the same
- body and sourness [4, 13]: good body; also recorded: Sourness was about the same
- sweetness compared with untreated control [4, 13]: much sweeter than the control
- sweetness of variant cola beverage compared with control cola (11.3 Brix) ([4]; Example 19: 35% less HFCS (7.5 Brix), 400 ppm phloroglucinol and 1% D-psicose): equal
- mouthfeel of variant cola beverage ([4]; Example 19: 400 ppm phloroglucinol and 1% D-psicose): very good mouthfeel
- sweetness, as equivalent aqueous sucrose reference solution ([5]; Example 1: 400 ppm phloroglucinol in 5% aqueous sucrose, references 5%, 7%, 9% sucrose): > 5% and ~7%
- temporal profile and quality of sweet taste ([5]; Example 2: 800 ppm phloroglucinol in 5% aqueous sucrose): sweetness of the variant took a split of a second to show but the backend seemed even sweeter; also recorded: the sweet taste was clean without lingering
- sweetness, as equivalent sucrose reference solution ([5]; Example 3: 800 ppm phloroglucinol in 5% aqueous sucrose without buffer, references 5-9% sucrose in pH 3.0 citrate buffer): ~8%
- temporal profile and quality of sweet taste ([5]; Example 3: 800 ppm phloroglucinol in 5% aqueous sucrose, references in pH 3.0 citrate buffer): sweetness of the variant took a split of a second to show but the backend seemed even sweeter; also recorded: the sweet taste was clean without lingering
- sweetness, as equivalent aqueous fructose reference solution ([5]; Example 4: 800 ppm phloroglucinol in 2.5% aqueous fructose): > 3.5% and ~4%
- temporal profile of sweet taste ([5]; Example 4: 800 ppm phloroglucinol in 2.5% aqueous fructose vs 4% fructose): the variant solution was sweeter in backend
- sweetness, as equivalent aqueous glucose reference solution ([5]; Example 5: 800 ppm phloroglucinol in 5% aqueous glucose): ~8% and < 9%
- dose response of apparent sweetness (FIG. 1) ([5]; Example 6: 40, 100, 200, 400, 600, 800 ppm phloroglucinol in 5% aqueous sucrose): approximately linear correlation between phloroglucinol concentration and apparent sweetness
- sweetness, as equivalent aqueous rebaudioside A reference solution [5, 14]: ~320 ppm
- taste quality (backend, bitter aftertaste of rebaudioside A) [5, 14]: a sweeter backend; also recorded: bitter aftertaste of rebaudioside A was not changed
- bitterness of the variant solution [5, 15]: did not change
- sweetness, as equivalent rebaudioside A reference solution [5, 15]: ~320 ppm
- sweetness, as equivalent aqueous sucrose reference solution ([5]; Examples 2, 10: 800 ppm phloroglucinol in 5% aqueous sucrose, references 5%, 7%, 9% sucrose): > 7% and < 9% and ~8%
- sweetness, as equivalent aqueous sucrose reference solution ([5]; Examples 7, 10, 11: 800 ppm phloroglucinol in 8% aqueous sucrose, first, second, third taster): > 10% and ~11% and > 11%
- stability in solution [6]: stable and does not precipitate out of solution at the concentrations described herein, or break down at higher temperatures or when exposed to sunlight
- sweetness compared with low control (5 g sugar) and high control (8 g sugar) ([7]; Example 14: 5 g sugar and 137 mg phloroglucinol per bag of IQO (29 g), warm and room temperature): sweeter than the low control but not quite as sweet as the high control
- sweetness compared with high control (8 g sugar) ([7]; Example 21: 5 g sugar, 100 mg phloroglucinol, 1 g D-psicose per bag of IQO (29 g)): sweetness similar to the high control
- phloroglucinol concentration required to achieve the sweetness of an 11% sugar solution ([8]; in the presence of 300 ppm salt): 500 ppm
- phloroglucinol concentration required to achieve the sweetness of an 11% sugar solution ([8]; no salt): 800 ppm
- sweetness, as equivalent sugar solution ([8]; Example 15 variant 2: 8% sugar, 500 ppm phloroglucinol, 300 ppm salt): 11 % sugar
- sweetness compared with low control (no salt) and 11% sugar high control ([8]; Example 15 variant: 8% sugar, 300 ppm phloroglucinol, 300 ppm salt): much sweeter than the low control, but not quite as sweet as the high control
- Taste: body compared with 8% sugar control ([9]; 600 ppm phloroglucinol, 400 ppm salt): more body
- Taste: body compared with 8% sugar control ([9]; 800 ppm phloroglucinol, 400 ppm salt): more body
- Taste: sweet taste as sugar equivalent ([9]; Example 17: 600 ppm phloroglucinol, 600 ppm salt, 8% sugar in water): ≥ 11 % sugar
- Taste: body [9, 16]: high body
- Taste: sweet taste as sugar equivalent [9, 16]: 12 % sugar
- Taste: sweet taste as sugar equivalent ([9]; Example 17: 800 ppm phloroglucinol, no salt, 8% sugar in water): 11 % sugar
- Taste: sweet taste as sugar equivalent ([9]; Example 17: 800 ppm phloroglucinol, no salt, 8% sugar in water, listed as Phloroglucinol): ~11% sugar
